In experiment [1] the test system is IKKα. The experiment is described as follows: Activation of IKKα in MESC2.10 neurons expressing Flag-tagged IKKα, immune kinase assay. The following applies: neurons starved for growth factors 8 hours; IGF-1 20 ng/ml, netrin 100 ng/ml. It counts as cell-based, human. On the procedure:
IGF-1 was added at 20 ng/ml for the indicated time.
Netrin was added at 100 ng/ml for the indicated time.
The ability of a molecule to increase IKKα activation can be measured using assays that are well known in the art. For example and without limitation, IKKα activators can be identified using immune kinase assays and gene reporter assay. In an example of immune kinase assays, MESC2.10 neurons engineered to express a Flag-tagged IKKα are starved for growth factors for 8 hours. Candidate IKKα activators are added, respectively, to the starved MESC2.10 neurons for desired period of time. Neurons are harvested and cytoplasmic extracts are used to immunoprecipitate IKKα using agarose beads coupled to anti-Flag antibody. Complexes are assayed for the ability to phosphorylate a recombinant substrate GST-IκBα in the presence of radioactive […]. Products are examined by SDS-PAGE followed by autoradiography.
MESC2.10 neurons engineered to express a Flag-tagged IKKα were starved for growth factors for 8 hours. 20 ng/ml insulin-like growth factor-1 (IGF-1) and 100 ng/ml netrin were added, respectively, to the starved MESC2.10 neurons for the indicated time. […] Fold changes of IKK activity were quantified by measuring the band intensity using Image J, and compared to non-treated neurons.

Experiment [2] concerns Bcl-xL. The experiment is described as follows: Bcl-xL level in extracts of MESC2.10 neurons, Western blotting. It counts as cell-based, human. As to conditions: MESC2.10 neurons pre-treated or transduced, then etoposide. The text has this:
FIG. 6A is a western blot showing the expression of Bcl-XL. Extracts of control and etoposide-treated MESC2.10 neurons were examined for Bcl-xL by Western blotting. […] Fold changes were normalized to the intensity of loading control, and compared to that of untreated control neurons (lane 5).
For orientation: A western blot detects proteins with antibodies after separation by electrophoresis.

For experiment [3], the target named is recombinant IKKβ (Homo sapiens, UniProt O14920). The following applies: full-length Bcl-xL, 32P-γ-ATP, 30 min at 30° C.
Description: Active recombinant IKKα or IKKβ were tested for the ability to phosphorylate Bcl-xL. The kinase assay was performed using recombinant Bcl-xL as a substrate. Products were visualized by autoradiography. IκBα was used as a positive control substrate for IKKα.
To determine IKKα activity, lyastes were first depleted of IKKβ complexes using 4 μg of anti-IKKγ and anti-IKKβ antibodies coupled to protein G. The depleted lysates were used to isolate IKKα complexes with 2 μg of anti-IKKα antibody. GST-IκBα was used as a substrate to measure kinase activity. To examine whether IKKs phosphorylate Bcl-xL, 0.5 μg of either IKKα or IKKβ were incubated with 1 μg of full-length Bcl-xL in the presence of 32P-γ-ATP for 30 min at 30° C. GST protein was used as a negative control. All kinase products were examined by SDS-PAGE and autoradiography.
The possibility that activated IKKβ phosphorylates Bcl-xL was tested. To avoid contamination with other neuronal kinases that may co-immunoprecipitate with IKKβ, recombinant IKKs were used for in vitro kinase assays with Bcl-xL as the substrate.
Experiment [4] deals with Htt. Briefly: γ-irradiation-induced Htt cleavage in MESC2.10 neurons. The following applies: 5 Gy, 6 hours; sodium salicylate 5 mg/ml 1 hour prior to irradiation. It counts as cell-based, human. The method, then: Cells were irradiated with 5 Gy and further incubated for the indicated time. Sodium salicylate (NaSal, lane 5) was added at a concentration of 5 mg/ml 1 hour prior to irradiation and incubated for 6 hours. […] Lanes 7 and 8 represent MESC2.10 neurons transduced with an IKKβ shRNA lentivirus (FIG. 4A) and irradiated with 5 Gy and incubated for 6 hours. […] Tubulin was used as a loading control
To confirm that Htt cleavage is induced by DNA damage and not other, secondary effects of etopoisde, we examined whether DNA damage induced by γ-irradiation of neurons could have a similar effect on Htt cleavage. […] The difference may be due to rapid induction of double stranded DNA breaks by irradiation.

For experiment [5], the system named is endogenous Htt. The experiment is described as follows: Etoposide-induced Htt proteolysis in MESC2.10 neurons, Western blotting with anti-Htt mAb 2166. It counts as cell-based, human. The following applies: pre-incubation 1 hr prior to 10 μM etoposide; sodium salicylate 5 mg/ml, caspase inhibitors 20 μM. The text has this: Extracts were examined for Htt by Western blotting. […] Fold changes for full-length Htt levels were obtained by measuring the band intensity in each lane, normalized to tubulin and compared to non-treated control.
EGFP-lentivirus was used a control (C). […] Second and third panels show staining for Bcl-xL and pro-caspase-3, respectively. IKKγ levels were used as a loading control.
(§1) Neurons were harvested and separated into cytoplasmic and nuclear fractions using the NE-PER kit (PIERCE) according to instructions. For most experiments, ˜120 μg of lysate were used for SDS-PAGE and Western blotting with the indicated antibodies. Reactive bands in Western blots were detected by enhanced chemiluminescence (ECL) using a gel documentation system.

The subject of experiment [6] is caspase-6. It counts as cell-based, human. The following applies: etoposide 6 hrs; VEID-p-nitroanaline substrate; sodium salicylate 5 mg/ml 1 hour prior.
Experiment [7] has as its system caspase-3. It counts as cell-based, human. The following applies: etoposide 6 hrs; DEVD-p-nitroanaline substrate; sodium salicylate 5 mg/ml 1 hour prior.
For experiment [8], the system named is Bcl-xL. The following applies: Hdh^Q111/Q111 neurons; NaSal 5 mg/ml 1 hour prior to 10 μM etoposide. On the procedure: as §1
Experiment [9] concerns the target T1, IKKβ (Homo sapiens, UniProt O14920).
T1 sequence (O14920 1-756): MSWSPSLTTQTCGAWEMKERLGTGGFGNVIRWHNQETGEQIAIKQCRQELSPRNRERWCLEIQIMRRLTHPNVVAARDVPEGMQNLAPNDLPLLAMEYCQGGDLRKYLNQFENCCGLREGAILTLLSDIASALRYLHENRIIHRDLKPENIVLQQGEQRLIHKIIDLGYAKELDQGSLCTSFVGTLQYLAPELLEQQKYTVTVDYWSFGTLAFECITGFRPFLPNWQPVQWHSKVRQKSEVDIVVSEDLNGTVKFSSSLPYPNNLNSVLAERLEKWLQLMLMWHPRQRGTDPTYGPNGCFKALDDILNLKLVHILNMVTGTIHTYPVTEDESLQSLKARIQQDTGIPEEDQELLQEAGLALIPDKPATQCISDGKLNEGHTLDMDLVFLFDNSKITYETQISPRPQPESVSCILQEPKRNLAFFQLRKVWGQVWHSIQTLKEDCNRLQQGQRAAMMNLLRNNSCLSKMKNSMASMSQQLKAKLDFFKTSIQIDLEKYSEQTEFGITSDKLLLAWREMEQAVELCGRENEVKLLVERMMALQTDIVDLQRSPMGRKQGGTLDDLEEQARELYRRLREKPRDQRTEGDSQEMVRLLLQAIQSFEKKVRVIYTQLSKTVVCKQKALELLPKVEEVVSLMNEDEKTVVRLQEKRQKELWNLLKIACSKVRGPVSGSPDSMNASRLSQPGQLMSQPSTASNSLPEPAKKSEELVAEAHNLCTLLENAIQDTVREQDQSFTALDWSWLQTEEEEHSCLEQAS
As to conditions: cited from earlier work.

Read-outs that look alike come from different tables or passages of the source.

For “IGF-1: insulin-like growth factor-1, IKKα activator”, the “activation of IKKα” value in [1] is “activates IKKα”.

With `O=C([O-])c1ccccc1O.[Na+]` [sodium salicylate], the “effect on etoposide-induced reduction of Bcl-xL” value in [2] is on record as “did not affect Bcl-xL”; in experiment [8], “prevented”. The “phosphorylation of Bcl-xL by IKKβ” value in experiment [3] is on record as “prevented the reaction”. Also, in experiment [4], the “effect on Htt cleavage induced by γ-irradiation” value was “blocked Htt cleavage”. In addition, the “effect on etoposide-induced Htt proteolysis” value in experiment [5] is recorded as “blocks etoposide-induced Htt proteolysis”. The “caspase-6 activity in neuronal extracts” value in [6] was “lowered the etoposide-induced activation of caspases”. Also, in experiment [7], the “caspase-3 activity in neuronal extracts” value is recorded as “lowered the etoposide-induced activation of caspases”.

Ac-VEID-aldehyde: the “effect on etoposide-induced Htt proteolysis” value in experiment [5] is “no significant effect”.

For the compound Ac-DEVD-CHO, the “effect on etoposide-induced Htt proteolysis” value in [5] is recorded as “reduced Htt proteolysis”.

With arsenite, the IKKβ activation entry in experiment [9] was “potently inhibited IKKβ activation”.

The values above are taken from US8318446B2, “DNA-damage-induced proteolysis” (California Institute of Technology, priority 2008, dated 2012).
